pIC50: −log10 of the molar value. Where two headings read alike, the source gives them in different places.
What was measured:
[1] = system: MCF7 TDX Tomudex-resistant breast cancer cells; assay: alamarBlue growth inhibition, MCF7 TDX; assay type: cell-based; conditions: Homo sapiens
Description: (§1) J. Growth Inhibition Studies. Cells growing exponentially were transferred to 384-well flat bottom tissue culture plates. All cell types were plated at a density of 500 cells per well in 25 μL of complete medium (RPMI 1640+10% fetal bovine serum+antibiotics/antimycotics). After 24 hours (day 0), 25 μL of complete medium containing the experimental compounds over the dose range of 10^ñ3 to 10^ñ10 M were added in triplicate. Drug exposure time was 120 hours (day 5), after which growth inhibition was assayed. 5 μL of the redox indicator, alamarBlue, was added to each well (10% v/v). After 4 hours incubation at 37° C., fluorescence was monitored at 535 nm excitation and 595 nm emission.
(§2) Concentration vs. relative fluorescence units (RFU) were plotted, and sigmoid curves were fit using the Hill equation.
(§3) O. Reversal of Resistance. The origin and characteristics of the human breast cancer MCF7 TDX cell line have been previously described (Drake, et al. (1996) Biochem. Pharmcol. 51(10): 1349-1355). Briefly, MCF-7 breast cancer cells were selected in vitro for resistance to Tomudex by continuous exposure to stepwise increases in TDX concentrations up to 2.0 μM.

[2] = system: MCF7 (Breast) tumor cells; assay: alamarBlue growth inhibition, MCF7; assay type: cell-based; conditions: Homo sapiens
Description: as §1, with “Drug exposure time was 120 hours (day 5), after which growth inhibition was assayed.” left out
as §2

[3] = system: normal and tumor cell types; assay: Tumor/normal cell screen, panel averages and therapeutic index; assay type: cell-based, human
Description: as §1, §2
Assays were carried out as described in Methods, above. Therapeutic index is calculated as the ratio of the average IC50 for normal cells to the average IC50 for tumor cells. All assays were done at least three times.

[4] = system: TSL/HT1080 cells (TS Level 702%); assay: alamarBlue growth inhibition, HT1080 clone with TS level 702%; assay type: cell-based; conditions: Homo sapiens, HT-1080, TSL/HT1080 (second line)
Description: (§4) F. Cell lines and transfection. HT1080 cells were grown in PRMI1640 medium supplemented with 10% fetal calf serum, and transfected with GFP-TS expression vector. 48 hours after, transfection cells were tripsinized and replated in culture medium containing 750 μg/ml G418. After selection with G418 for two weeks, surviving cells were sorted based upon fluorescence expression. One clone with higher fluorescence expression (named as TSH/HT1080) and one clone with lower fluorescence expression (named as TSL/HT1080) were selected and expanded into cells lines. The stable HT1080 cells transfected with pEGFP-C3 were used as control.
(§5) G. Construction of GFP-TS expression vector. […]
(§6) J. Growth Inhibition Studies. […] After 4 hours incubation at 37° C., fluorescence was monitored at 535 nm excitation and 595 nm emission.
as §2
(§7) A cDNA encoding rHuTS was subcloned into ventor pEGFP-C3, in-frame with GFP. […] Individual cells were cloned based upon high or low fluorescence expression as described in Methods. *TS levels were determined by using Western blot analysis, the quantified expression levels were expressed as values relative to that of cell strain CCD18co.

rHuTS [5] = biological target: T1, rHuTS (Homo sapiens, UniProt P04818); assay: Inhibition of rHuTS reactions by Tomudex and 5-FdUMP; assay type: biochemical; conditions: for activity at 0.5 µM: read-out: rate as % of No Inhibitor
T1 construct: His tag (N); made in house; host or cells: E. coli BL21 (DE3), pET-28a(+)
Description: M. Enzyme Assays and Kinetic Measurements. Thymidylate synthase assays were done in 96 well Costar UV transparent plates in a reaction volume of 200 μl, consisting of 40 mM Tris pH 7.5, 25 mM MgCl2, 1 mM EDTA, 25 mM-mercaptoethanol, 125 µM dUMP, and 65 μM N5, N1O-methylene tetrahydrofolate indicated. Tetrahydrofolate stock solutions were prepared by dissolving tetrahydrofolic acid (Sigma) directly into 0.2 M Tris pH 7.5, 0.5 M-mercaptoethanol; stock solutions were stored at −80° C. N5, N10-methylene tetrahydrofolate was prepared by adding 12 μl of 3.8% formaldehyde to 1 ml of a 0.65 mM solution of tetrahydrofolate and incubating for 5 minutes at 37° C. N5, N10-methylene tetrahydrofolate was kept on ice and used within 2 hours of preparation.
Conversion of BVdUMP to fluorescent product(s) by thymidylate synthase was measured in 200 µl thymidylate synthase reactions containing 125 µM BVdUMP in 96 well Dynex Microfluor Black “U” bottom microtiter plates using an excitation wavelength of 340 nm and emission wavelength of 595 nm. Fluorescence was measured with a Tecan Spectrafluor Plus fluorimeter.
Inhibition of rHuTS reactions by Tomudex and 5-FdUMP. Thymidylate synthase reactions containing enzyme inhibitors or cofactor were incubated at 30° C. as described in Materials and Methods, and the initial rates of the enzyme reaction were determined by measuring the increase in relative fluorescence units at 340 nm excitation, 595 nm emission for the BVdUMP reactions, or increase in A340 for the dUMP reaction.

MCF7 TDX/1011 cells = assay: alamarBlue growth inhibition, MCF7 TDX/1011; assay type: cell-based; conditions: Homo sapiens
Description: as §1, §2, §3

[6] = system: TSL/HT1080 cells (GFP-TS, lower expression); assay: alamarBlue growth inhibition, TSL/HT1080; assay type: cell-based; conditions: Homo sapiens, HT-1080; TSL/HT1080, TS Level 409%
Description: as §4, §5, §6, §2, §7

rHuTS [7] = biological target: T1, rHuTS; assay: Impact of folate inhibitors, cell-free rHuTS substrate utilization; assay type: biochemical; conditions: for remaining activity: MTX 140 μM, LV 140 μM or TDX 5 μM
Description: M. Enzyme Assays and Kinetic Measurements. […] Tetrahydrofolate stock solutions were prepared by dissolving tetrahydrofolic acid (Sigma) directly into 0.2 M Tris pH 7.5, 0.5 M-mercaptoethanol; stock solutions were stored at −80° C. […] N5, N10-methylene tetrahydrofolate was kept on ice and used within 2 hours of preparation.
Cell-free assays using rHuTS, the appropriate substrate and other components were combined as described in Methods. […] Utilization of substrate (either BVdUMP or THF) was employed as a measure of reaction rate. The numbers indicate remaining activity.

[8] = system: CCD18co normal colon epthelial cell; assay: Thymidine rescue, alamar blue; assay type: cell-based, human; conditions: for rescue by thymidine: 10 uM thymidine; for pIC50: Homo sapiens, CCD-18Co
From the text: An additional approach was taken to understanding whether NB1011 might interfere with cell growth primarily by inactivating TS. This approach is based upon thymidine rescue of TS-blocked cells. […] For this reason, they survive only by scavenger mechanisms. One of the important scavenger mechanisms is utilization of extracellular thymidine. Thymidine incorporated by target cells can be converted to dTMP, usually by thymidine kinase, and thus continue DNA synthesis. Other pathways for use of exogenous thymidine have also been described If an important mechanism for NB1011 activity is via inhibition of endogenous TS, then the cytotoxicity should be relieved when thymidine is added to the cell culture media. For this experiment, a number of tumor cell lines were screened for their sensitivity to Tomudex and 5FdUrd, and ability to be rescued from these agents via thymidine supplementation. […] Experiments were carried out as described by (Patterson, et al. (1998) Cancer Res. 58: 2737-2740) with or without 10 uM thymidine, except that the alamar blue assay (see Materials and Methods) was employed to determine cytotoxicity.

C/HT1080 cells = assay: alamarBlue growth inhibition, C/HT1080 control; assay type: cell-based; conditions: Homo sapiens, HT-1080; C/HT1080, TS Level 100%
Description: as §4, §5, §6, §2, §7

[9] = system: H630R10 5FU-resistant colon tumor cells; assay: alamarBlue growth inhibition, H630R10; assay type: cell-based, human
Description: as §1, with “Drug exposure time was 120 hours (day 5), after which growth inhibition was assayed.” left out
as §2

[10] = biological target: T2, recombinant human thymidylate synthase (rHuTS) (Homo sapiens, UniProt P04818); assay: Enzyme kinetics of rHuTS with dUMP and BVdUMP; assay type: biochemical
T2 construct: His tag (N); made in house; host or cells: E. coli BL21 (DE3), pET-28a(+)
Description: L. Enzyme Preparation. Cloned human thymidylate synthase plasmid pBCHTS was subcloned into E. coli. BL21 (DE3)/pET-28a(+) (Novagen) using the NdeI ñSacI insertion site, in order to add an amino terminal His tag. […] M. Enzyme Assays and Kinetic Measurements. […] Tetrahydrofolate stock solutions were prepared by dissolving tetrahydrofolic acid (Sigma) directly into 0.2 M Tris pH 7.5, 0.5 M-mercaptoethanol; stock solutions were stored at -80° C. […] N5, N10-methylene tetrahydrofolate was kept on ice and used within 2 hours of preparation. […] The catalytic efficiency of the enzyme (Kcat/Km) was calculated from the kinetic constants Km and Vmax.

[11] = BVdUMP − THF, inhibitor 500 nM, relative fluorescence units

T1 sequence (P04818 whole entry): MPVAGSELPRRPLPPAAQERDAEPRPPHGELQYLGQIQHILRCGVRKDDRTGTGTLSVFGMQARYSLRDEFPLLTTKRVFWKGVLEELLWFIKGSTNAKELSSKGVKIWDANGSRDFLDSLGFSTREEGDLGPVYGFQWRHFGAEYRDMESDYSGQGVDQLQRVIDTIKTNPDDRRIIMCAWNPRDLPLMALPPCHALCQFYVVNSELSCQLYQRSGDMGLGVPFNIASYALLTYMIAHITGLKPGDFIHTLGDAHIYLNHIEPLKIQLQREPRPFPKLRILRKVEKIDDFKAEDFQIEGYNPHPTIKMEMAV
T2 sequence (P04818 whole entry): as above

O=c1[nH]cc(F)c(=O)[nH]1 [5FU, 5-fluorouracil]
pIC50 [1]: 4.49
pIC50 [2]: 5.00
more toxic to normal cells than to tumor cells ([3]; overall): 3 fold
Therapeutic index (N/T) ([3]; ratio of average IC50 normal cells to average IC50 tumor cells): 0.30
pIC50 [4]: 5.46

O=c1[nH]c(=O)n([C@H]2C[C@H](O)[C@@H](COP(=O)(O)O)O2)cc1F [5-FdUMP]
initial rate of rHuTS reaction (rHuTS [5]; BVdUMP + THF, inhibitor 500 nM): 44 ± 2 RFU/min
initial rate of rHuTS reaction (rHuTS [5]; [11]): 93 ± 13
initial rate of rHuTS reaction (rHuTS [5]; dUMP + THF, inhibitor 500 nM): 290 ± 70 nmol/min

Cc1nc2ccc(CN(C)c3ccc(C(=O)N[C@@H](CCC(=O)O)C(=O)O)s3)cc2c(=O)[nH]1 [Tomudex]
pIC50 (MCF7 TDX/1011 cells): 7.39
pIC50 [1]: < 5.00
pIC50 [2]: 7.59
pIC50 [6]: 4.62
remaining activity (rHuTS [7]; BVdUMP, w/o THF): 25%
remaining activity (rHuTS [7]; BVdUMP, with THF): 0%
remaining activity (rHuTS [7]; dUMP, with THF): 18%
pIC50 [4]: 3.82
rescue by thymidine [8]: 15 fold
pIC50 ([8]; with 10 uM thymidine): 7.02
pIC50 ([8]; without thymidine): 8.19
pIC50 (C/HT1080 cells): 5.44
initial rate of rHuTS reaction (rHuTS [5]; BVdUMP + THF, inhibitor 500 nM): 67 ± 3 RFU/min
activity at 0.5 µM (rHuTS [5]; BVdUMP + THF, inhibitor 500 nM): 61%
activity at 0.5 µM (rHuTS [5]; BVdUMP − THF, inhibitor 500 nM): 45%
initial rate of rHuTS reaction (rHuTS [5]; [11]): 34 ± 3
initial rate of rHuTS reaction (rHuTS [5]; dUMP + THF, inhibitor 500 nM): 690 ± 40 nmol/min
activity at 0.5 µM (rHuTS [5]; dUMP + THF, inhibitor 500 nM): 46%

O=c1[nH]c(=O)n([C@H]2C[C@H](O)[C@@H](CO)O2)cc1F [5FUdR, 5-fluoro-2′-deoxyuridine]
rescue by thymidine [8]: greater than 590 fold
more toxic to normal colon cells (CCD18co) than to 5FU-resistant H630R10 tumor cells [9]: about 18 fold

Nc1nc2c(c(=O)[nH]1)N(C=O)C(CNc1ccc(C(=O)N[C@@H](CCC(=O)O)C(=O)O)cc1)CN2 (stereo partly shown) [LV, 5-formyltetrahydrofolate]
remaining activity (rHuTS [7]; BVdUMP, w/o THF): 97%
remaining activity (rHuTS [7]; BVdUMP, with THF): 17%
remaining activity (rHuTS [7]; dUMP, with THF): 77%

O=c1ccn([C@H]2C[C@H](O)[C@@H](COP(=O)(O)O)O2)c(=O)[nH]1 [dUMP, Deoxguridine Monophosphate]
initial rate of rHuTS reaction (rHuTS [5]; dUMP + THF, No Inhibitor, A340): 1500 ± 20 nmol/min

O=c1[nH]c(=O)n([C@H]2C[C@H](O)[C@@H](COP(=O)(O)O)O2)cc1/C=C/Br [BVdUMP, (E)5-(2-Bromovinyl)-2′-deoxyuridine 5′-monophosphate]
substrate utilization rate relative to reaction with THF (rHuTS [7]; BVdUMP, w/o THF, Inhibitor None): 138%
type of inhibition with dUMP in rHuTS ([10]; 20 μM BVdUMP, dUMP 10 to 100 μM): competitive
increase in catalytic efficiency of BVdUMP conversion, human enzyme vs L. casei enzyme ([10]; relative to endogenous substrate dUMP): > 6.4 fold
initial rate of rHuTS reaction (rHuTS [5]; BVdUMP + THF, No Inhibitor, 30° C.): 109 ± 16 RFU/min
initial rate of rHuTS reaction (rHuTS [5]; BVdUMP − THF, No Inhibitor, relative fluorescence units): 75 ± 11

Reference: US7419968B1, “Methods for treating therapy-resistant tumors” (Celmed Oncology (USA), Inc., priority 1999, dated 2008)
